Source: ChEMBL document CHEMBL1129091, “Synthesis and biological evaluation of a bicyclo [7.4.1]enediyne” (Bioorg Med Chem Lett, 1996)
In brackets after ≈: the same amount, converted by molar mass.

System: HCT-116
Test: In vitro cytotoxicity against human colon carcinoma cells (HCT116)
Assay type: functional, cell-based

CC1(C)C2=CC(=O)CC[C@@]1(O)C#C/C=C\C#C[C@H]2O
IC50: 18 µg/mL (≈ 70.2 µM)
